Results taken from patent US9253983B2, “Triazole compound and use thereof” (KUREHA CORPORATION, priority 2011, dated 2016).

Columns and labels:
Gibberella fujikuroi = experiment: Test 1 for antifungal effect, plate medium: G.f; format: cell-based; conditions: PDA plate medium
Method: (§1) Compound (1-1a) or Compound (1-2a) was dissolved in dimethyl sulfoxide, and the resulting solution was added to a PDA medium (potato dextrose-agar medium) at about 60° C. The medium and the solution were mixed thoroughly in a conical flask, poured into a petri dish, and allowed to solidify. In this way, a plate medium containing Compound (1-1a) or Compound (1-2a) at a certain concentration was prepared.
(§2) Meanwhile, test microorganisms cultured on a plate medium in advance were cut out with the use of a cork borer 4 mm in diameter, and were inoculated onto the compound-containing plate medium. After the inoculation, the microorganisms were cultured at their optimum growth temperatures (for example, refer to LIST OF CULTURES 1996 microorganisms 10th edition, Institute for Fermentation (foundation)) for 1 day to 7 days, and their growth was determined by measuring the diameter of their flora. The extent of growth of the microorganisms on the compound-containing plate medium was compared with that of microorganisms on a plate medium where no compound was added, and mycelial growth inhibition rate was calculated by the following equation: R=100(dc−dt)/dc where R is mycelial growth inhibition rate (%), dc is the flora diameter in untreated plate, and dt is the flora diameter in plate treated with the compound.
(§3) A larger antifungal index indicates a better antifungal effect.

Botrytis cinerea = experiment: Test 1 for antifungal effect, plate medium: B.c; format: cell-based; conditions: PDA plate medium
Method: as §1, §2, §3

wheat [1] = experiment: Growth inhibition (adverse effects) of seed treatment on wheat seeds; format: in vivo; conditions: wheat, 20 days after sowing
Method: A pot experiment was performed to evaluate the growth inhibition (adverse effects) caused by the seed treatment. Compound (1-1a) and Compound (1-2a), each of which was dissolved in DMSO to make up such a concentration that the seeds would be treated in treatment amount of 2 g to 200 g ai/100 kg seeds, were each applied to wheat seeds in a vial, and thereafter 8 wheat seeds were sowed in an 80-cm^2 pot. The pot was kept in a greenhouse with water supplied to its bottom. 20 days after the sowing, a growth measure of wheat was evaluated. A growth inhibition index was calculated based on the criteria shown by Table 10. In Table 10, a smaller growth inhibition index indicates a lesser adverse effect of growth inhibition caused by the treatment with the use of a plant disease controlling agent.

Phaeosphaeria nodorum = experiment: Test 1 for antifungal effect, plate medium: P.n; format: cell-based; conditions: PDA plate medium
Method: as §1, §2, §3

Septoria tritici = experiment: Test 2 for antifungal effect, plate medium: S.t; format: cell-based; conditions: PDA plate medium
Method: as §1, with “(1-1b)” for “(1-1a)”, “(1-2b)” for “(1-2a)”
(§4) Meanwhile, test microorganisms cultured on a plate medium in advance were cut out with the use of a cork borer 4 mm in diameter, and were inoculated onto the compound-containing plate medium. After the inoculation, the pathogens were cultured at their optimum growth temperatures (for example, refer to LIST OF CULTURES 1996 microorganisms 10th edition, Institute for Fermentation (foundation)) for 1 day to 7 days, and their growth was determined by measuring the diameter of their flora. The extent of growth of the pathogens on the compound-containing plate medium was compared with that of pathogens on a plate medium where no compound was added, and mycelial growth inhibition rate was calculated as in Experiment Example 10. Note that, in Experiment Example 11, controls used in the antifungal effect tests are Compound (1-1a) and Compound (1-2a) instead of Compound (1-1b) and Compound (1-2b), respectively.
(§5) The results were rated on a 1-to-5 scale as in Experiment Example 10.

Ustilago nuda = experiment: Test 2 for antifungal effect, plate medium: U.n; format: cell-based; conditions: PDA plate medium
Method: as §1, with “(1-1b)” for “(1-1a)”, “(1-2b)” for “(1-2a)”
as §4, §5

Glomerella cingurata = experiment: Test 1 for antifungal effect, plate medium: G.c; format: cell-based; conditions: PDA plate medium
Method: as §1, §2, §3

wheat [2] = experiment: Necrosis (adverse effects) of seed treatment on wheat seeds; format: in vivo; conditions: 20 days after sowing
Method: A pot experiment was performed to evaluate necrosis (adverse effects) caused by the seed treatment. Compound (1-1a) and Compound (1-2a), each which was dissolved in DMSO to make up such a concentration that the seeds would be treated in treatment amount of 2 g to 200 g ai/100 kg seeds, were each applied to wheat seeds in a vial, and thereafter 8 wheat seeds were sowed in an 80-cm^2 pot. The pot was kept in a greenhouse with water supplied to its bottom. 20 days after the sowing, an extent of necrosis (percentage of necrotic surface area) of wheat was evaluated. A necrosis index was derived from the percentage of the necrotic surface area, based on the criteria shown by Table 13. In Table 13, a smaller necrosis index indicates a lesser adverse effect of necrosis caused by the treatment with the use of a plant disease controlling agent.

Sclerotinia sclerotiorum = experiment: Test 1 for antifungal effect, plate medium: S.s; format: cell-based; conditions: PDA plate medium
Method: as §1, §2, §3

Rhizopus oryzae = experiment: Test 1 for antifungal effect, plate medium: R.o; format: cell-based; conditions: PDA plate medium
Method: as §1, §2, §3

Penicillium italicum = experiment: Test 2 for antifungal effect, plate medium: P.i; format: cell-based; conditions: PDA plate medium
Method: as §1, with “(1-1b)” for “(1-1a)”, “(1-2b)” for “(1-2a)”
as §4, §5

Microdochium nivale = experiment: Test 1 for antifungal effect, plate medium: M.n; format: cell-based; conditions: PDA plate medium
Method: as §1, §2, §3

[3] = treatment amount 2 g ai/100 kg seeds
[4] = treatment amount 20 g ai/100 kg seeds
[5] = treatment amount 200 g ai/100 kg seeds

CC1(CCl)CCC(Cc2ccc(Cl)cc2)C1(O)Cn1cncn1 (single isomer, unassigned) [Compound (1-1b), (1,2-cis, 1,5-cis)-5-(4-chlorobenzyl)-2-chloromethyl-2-methyl-1-(1H-1,2,4-triazole-1-ylmethyl)cyclopentanol]
Antifungal index (mycelial growth inhibition rate) (Gibberella fujikuroi; 0.16 mg/L): 3 (Less than 80% but not less than 70%) | Antifungal index (mycelial growth inhibition rate) (Gibberella fujikuroi; 0.31 mg/L): 4 (Less than 90% but not less than 80%) | Antifungal index (mycelial growth inhibition rate) (Gibberella fujikuroi; 0.63 mg/L): 5 (90% or greater) | Antifungal index (mycelial growth inhibition rate) (Gibberella fujikuroi; 1.25 mg/L): 5 (90% or greater) | Antifungal index (mycelial growth inhibition rate) (Gibberella fujikuroi; 2.50 mg/L): 5 (90% or greater) | Antifungal index (mycelial growth inhibition rate) (Botrytis cinerea; 0.16 mg/L): 1 (Less than 60%) | Antifungal index (mycelial growth inhibition rate) (Botrytis cinerea; 0.31 mg/L): 1 (Less than 60%) | Antifungal index (mycelial growth inhibition rate) (Botrytis cinerea; 0.63 mg/L): 3 (Less than 80% but not less than 70%) | Antifungal index (mycelial growth inhibition rate) (Botrytis cinerea; 1.25 mg/L): 4 (Less than 90% but not less than 80%) | Antifungal index (mycelial growth inhibition rate) (Botrytis cinerea; 2.50 mg/L): 5 (90% or greater) | Growth inhibition index (wheat [1]; [3]): 0 (50% or more) | Growth inhibition index (wheat [1]; [4]): 4 (Less than 20% but 10% or more) | Growth inhibition index (wheat [1]; [5]): 4 (Less than 20% but 10% or more) | Antifungal index (mycelial growth inhibition rate) (Phaeosphaeria nodorum; 0.16 mg/L): 2 (Less than 70% but not less than 60%) | Antifungal index (mycelial growth inhibition rate) (Phaeosphaeria nodorum; 0.31 mg/L): 2 (Less than 70% but not less than 60%) | Antifungal index (mycelial growth inhibition rate) (Phaeosphaeria nodorum; 0.63 mg/L): 2 (Less than 70% but not less than 60%) | Antifungal index (mycelial growth inhibition rate) (Phaeosphaeria nodorum; 1.25 mg/L): 3 (Less than 80% but not less than 70%) | Antifungal index (mycelial growth inhibition rate) (Phaeosphaeria nodorum; 2.50 mg/L): 5 (90% or greater) | Antifungal index (mycelial growth inhibition rate) (Septoria tritici; 0.04 mg/L): 1 (Less than 60%) | Antifungal index (mycelial growth inhibition rate) (Septoria tritici; 0.08 mg/L): 1 (Less than 60%) | Antifungal index (mycelial growth inhibition rate) (Septoria tritici; 0.16 mg/L): 1 (Less than 60%) | Antifungal index (mycelial growth inhibition rate) (Septoria tritici; 0.31 mg/L): 3 (Less than 80% but not less than 70%) | Antifungal index (mycelial growth inhibition rate) (Septoria tritici; 0.63 mg/L): 5 (90% or greater) | Antifungal index (mycelial growth inhibition rate) (Septoria tritici; 1.25 mg/L): 5 (90% or greater) | Antifungal index (mycelial growth inhibition rate) (Ustilago nuda; 0.04 mg/L): 1 (Less than 60%) | Antifungal index (mycelial growth inhibition rate) (Ustilago nuda; 0.08 mg/L): 1 (Less than 60%) | Antifungal index (mycelial growth inhibition rate) (Ustilago nuda; 0.16 mg/L): 2 (Less than 70% but not less than 60%) | Antifungal index (mycelial growth inhibition rate) (Ustilago nuda; 0.31 mg/L): 3 (Less than 80% but not less than 70%) | Antifungal index (mycelial growth inhibition rate) (Ustilago nuda; 0.63 mg/L): 4 (Less than 90% but not less than 80%) | Antifungal index (mycelial growth inhibition rate) (Ustilago nuda; 1.25 mg/L): 5 (90% or greater) | Antifungal index (mycelial growth inhibition rate) (Glomerella cingurata; 0.16 mg/L): 2 (Less than 70% but not less than 60%) | Antifungal index (mycelial growth inhibition rate) (Glomerella cingurata; 0.31 mg/L): 4 (Less than 90% but not less than 80%) | Antifungal index (mycelial growth inhibition rate) (Glomerella cingurata; 0.63 mg/L): 5 (90% or greater) | Antifungal index (mycelial growth inhibition rate) (Glomerella cingurata; 1.25 mg/L): 5 (90% or greater) | Antifungal index (mycelial growth inhibition rate) (Glomerella cingurata; 2.50 mg/L): 5 (90% or greater) | Necrosis index (wheat [2]; [3]): 0 (Less than 1%) | Necrosis index (wheat [2]; [4]): 2 (Less than 20% but not less than 5%) | Necrosis index (wheat [2]; [5]): 2 (Less than 20% but not less than 5%) | Antifungal index (mycelial growth inhibition rate) (Sclerotinia sclerotiorum; 0.16 mg/L): 3 (Less than 80% but not less than 70%) | Antifungal index (mycelial growth inhibition rate) (Sclerotinia sclerotiorum; 0.31 mg/L): 5 (90% or greater) | Antifungal index (mycelial growth inhibition rate) (Sclerotinia sclerotiorum; 0.63 mg/L): 5 (90% or greater) | Antifungal index (mycelial growth inhibition rate) (Sclerotinia sclerotiorum; 1.25 mg/L): 5 (90% or greater) | Antifungal index (mycelial growth inhibition rate) (Sclerotinia sclerotiorum; 2.50 mg/L): 5 (90% or greater) | Antifungal index (mycelial growth inhibition rate) (Rhizopus oryzae; 0.16 mg/L): 1 (Less than 60%) | Antifungal index (mycelial growth inhibition rate) (Rhizopus oryzae; 0.31 mg/L): 1 (Less than 60%) | Antifungal index (mycelial growth inhibition rate) (Rhizopus oryzae; 0.63 mg/L): 1 (Less than 60%) | Antifungal index (mycelial growth inhibition rate) (Rhizopus oryzae; 1.25 mg/L): 1 (Less than 60%) | Antifungal index (mycelial growth inhibition rate) (Rhizopus oryzae; 2.50 mg/L): 4 (Less than 90% but not less than 80%) | Antifungal index (mycelial growth inhibition rate) (Penicillium italicum; 0.04 mg/L): 3 (Less than 80% but not less than 70%) | Antifungal index (mycelial growth inhibition rate) (Penicillium italicum; 0.08 mg/L): 4 (Less than 90% but not less than 80%) | Antifungal index (mycelial growth inhibition rate) (Penicillium italicum; 0.16 mg/L): 5 (90% or greater) | Antifungal index (mycelial growth inhibition rate) (Penicillium italicum; 0.31 mg/L): 5 (90% or greater) | Antifungal index (mycelial growth inhibition rate) (Penicillium italicum; 0.63 mg/L): 5 (90% or greater) | Antifungal index (mycelial growth inhibition rate) (Penicillium italicum; 1.25 mg/L): 5 (90% or greater) | Antifungal index (mycelial growth inhibition rate) (Microdochium nivale; 0.16 mg/L): 1 (Less than 60%) | Antifungal index (mycelial growth inhibition rate) (Microdochium nivale; 0.31 mg/L): 1 (Less than 60%) | Antifungal index (mycelial growth inhibition rate) (Microdochium nivale; 0.63 mg/L): 1 (Less than 60%) | Antifungal index (mycelial growth inhibition rate) (Microdochium nivale; 1.25 mg/L): 2 (Less than 70% but not less than 60%) | Antifungal index (mycelial growth inhibition rate) (Microdochium nivale; 2.50 mg/L): 3 (Less than 80% but not less than 70%)
